Experiments:
Type in all cases: in vivo, human
[1] = test system: advanced solid tumors; assay: Tumor response by RECIST version 1.1; parameters: key to Best response, individual patient: PD: progressive disease; PR: partial response; SD: stable disease; conditions: for Duration of SD / Duration PR maintained: 1 patient
Description: (§1) DLTs included: cycle 1 grade ≥3 hematologic and non-hematologic events or grade 2 non-hematologic events considered by the investigator to be TAK-931-related, grade 2 ejection fraction decrease, >2 weeks delay in initiating cycle 2 (1 week for schedules D and E), and >50% TAK-931 dose reduction in cycle 1 due to treatment-related adverse events (AEs; see Supplementary Materials and Methods for full DLT criteria). Toxicity was evaluated by NCI Common Terminology Criteria for Adverse Events (version 4.03). Tumor response was measured using the RECIST (version 1.1) ([16]). Serial blood samples for pharmacokinetic analysis were collected during cycle 1 on days 1 and 7 (schedule B), 1 and 8 (schedules A and D), or 1 and 9 (schedule E). Pharmacokinetic parameters were estimated from concentration–time profiles using noncompartmental methods with WinNonlin® Phoenix™ version 8.1 (Certara, Princeton, NJ). pMCM2 was detected semiquantitatively by IHC of histologic sections of formalin-fixed, paraffin-embedded skin and tumor biopsies using anti-pMCM2 (3378-1, Epitomics Inc.; ref. [15]). Quantitative image analysis determined pMCM2 levels as “histologic score nuclei (H-score).” Skin punch biopsies (2–4 mm) were obtained during screening or predose on cycle 1, day 1 and for patients in schedules A, B, and D, postdose on any drug dosing day after 3 consecutive dosing days in cycle 1. A postdose skin biopsy was obtained on day 9 in schedule E. Fresh tumor biopsy pairs were collected predose and postdose on any dosing day after the completion of 3 consecutive dosing days in cycle 1 from patients who received doses considered to have biological effect.
(§2) The safety population included patients who received ≥1 dose of TAK-931. The pharmacodynamic-evaluable population comprised patients from the safety population with a baseline and ≥1 additional postbaseline biopsy sample that was suitable for pMCM2 analysis. The pharmacokinetic-evaluable population included patients with sufficient dosing and TAK-931 concentration–time data to estimate pharmacokinetic parameters. The response-evaluable population included patients in the safety population with measurable disease at baseline and ≥1 postbaseline response assessment.

[2] = test system: skin phosphorylated MCM2 (pMCM2; a CDC7 substrate); assay: pMCM2 IHC (H-score) in skin punch biopsies
Excerpt: The primary objectives were to evaluate safety, tolerability, and to identify the MTD of TAK-931. Secondary objectives were to characterize the pharmacokinetics of TAK-931, assess pharmacodynamic effects of TAK-931 by measuring basal and postdose levels of skin phosphorylated MCM2 (pMCM2; a CDC7 substrate), and assess preliminary clinical activity of TAK-931. An exploratory objective was to assess the pharmacodynamic effect of TAK-931 in fresh tumor biopsies after multiple doses of TAK-931 that were considered to have biological effect.
as §1, §2

[3] = test system: patients with advanced solid tumors; assay: Dose-limiting toxicities, MTD and RP2D determination (BLRM-guided dose escalation)
Excerpt: This was a phase I, open-label, dose-escalation study of single-agent TAK-931. Dose escalation of TAK-931 was cohort based with an adaptive design using Bayesian logistic regression modeling (BLRM) with pharmacokinetic guidance. BLRM also guided MTD estimation from the second dose. Patients were enrolled in one of four dosing schedules (A, B, D, or E; Supplementary Fig. S1) to receive TAK-931. Two additional schedules were planned (C and F) but no patients were enrolled. Schedule A included an initial accelerated escalation phase. TAK-931 was administered once daily for 14 days in 21-day cycles starting at 30 mg, which doubled until a cycle 1 dose-limiting toxicity (DLT) was observed, when 2 patients experienced grade ≥2 treatment-related toxicity, or when maximum geometric mean plasma concentration (Cmax) for the cohort reached or exceeded 800 ng/mL [threshold for off-target adverse effects (hypotension) in animal toxicology studies]; then dose escalation transitioned to modified Fibonacci escalation steps. In schedule B (based on experience with schedule A), patients received TAK-931 once daily or twice daily for 7 days on, 7 days off in a 28-day cycle starting at 60 mg. In schedule D, patients received TAK-931 once daily starting at 20 mg in 21-day cycles; BLRM was not applied but further adjustments were dependent on observed safety, pharmacokinetics, and pharmacodynamics. In schedule E, patients received TAK-931 once daily for 2 days on, 5 days off starting at 100 mg in 21-day cycles. A safety expansion was permitted once MTD had been determined. Prophylactic growth factors were permitted in all schedules to manage severe and/or febrile neutropenia. TAK-931 treatment continued until unacceptable toxicity, disease progression, or patient withdrawal.
as §1
A dose-limiting toxicity (DLT) was defined as any of the following events that occurred during cycle 1 and were considered by the investigator to be related to TAK-931:
Grade 4 neutropenia (ANC <500 cells/mm^3) lasting >7 consecutive days; if myeloid growth factors were used, the event was considered a DLT irrespective of the duration
Grade ≥3 neutropenia (ANC <1000 cells/mm^3) with fever and/or infection, where fever was defined as a single temperature of >38.3°C or sustained temperature of ≥38°C for >1 hour […]

Cc1[nH]ncc1-c1cc2nc([C@@H]3CC4CCN3CC4)[nH]c(=O)c2s1 [TAK-931, simurosertib]
Duration of SD ([1]; cervical cancer, schedule A (50 mg)): 11.33 months
Duration of SD ([1]; cervical cancer, schedule D (40 mg)): 15.24 months
Duration PR maintained ([1]; cervical squamous cell cancer, schedule A 60 mg): 2.2 months
Duration PR maintained ([1]; duodenal squamous cell cancer, schedule A 30 mg): 2.1 months
Duration PR maintained ([1]; esophageal cancer, schedule B 100 mg): 4.2 months
Duration PR maintained ([1]; esophageal squamous cell cancer, schedule A 50 mg): 2.7 months
Duration of SD ([1]; thymic cancer, schedule A (50 mg)): 10.45 months
CR (complete response) as best response ([1]; Schedule A n = 24): 0 n (%) [95% CI]
CR (complete response) as best response ([1]; Schedule B n = 23): 0 n (%) [95% CI]
CR (complete response) as best response ([1]; Schedule D n = 17): 0 n (%) [95% CI]
ORR (overall response rate), investigator's assessment ([1]; Schedule D n = 17): 0 n (%) [95% CI]
PR (partial response) as best response ([1]; Schedule D n = 17): 0 n (%) [95% CI]
CR (complete response) as best response ([1]; Schedule E n = 11): 0 n (%) [95% CI]
ORR (overall response rate), investigator's assessment ([1]; Schedule E n = 11): 0 n (%) [95% CI]
PR (partial response) as best response ([1]; Schedule E n = 11): 0 n (%) [95% CI]
Patients achieving a partial response ([1]; overall): 5 patients
Patients with best response of SD ([1]; overall): 28 patients
Share of patients with SD or PR having esophageal, thymic, or cervical cancer ([1]; overall): 39%
Median progression-free survival ([1]; overall, 95% confidence interval, 1.94–3.06): 2.2 months
Overall response rate (ORR) ([1]; schedule A): 13%
Best response, individual patient ([1]; schedule A, 30 mg, cancer type Duodenal): PR
Best response, individual patient ([1]; schedule A, 30 mg, cancer type Pancreatic): SD
Best response, individual patient ([1]; schedule A, 30 mg, cancer type Rectal): PD
Best response, individual patient ([1]; schedule A, 40 mg, cancer type Breast): PD
Best response, individual patient ([1]; schedule A, 40 mg, cancer type Rectal): PD
Best response, individual patient ([1]; schedule A, 40 mg, cancer type Unknown): SD
Best response, individual patient ([1]; schedule A, 60 mg, cancer type Cervical): PR
Best response, individual patient ([1]; schedule A, 60 mg, cancer type Ovarian): SD
Best response, individual patient ([1]; schedule A, 60 mg, cancer type Pancreatic): SD
Overall response rate (ORR) ([1]; schedule B): 9%
Skin pMCM2 Mean H-score (StDev), Cycle 1, day 8 ([2]; Schedule A (30 mg), n = 3, baseline mean H-score 18.47 (8.45)): 10.93 (6.57)
% of pMCM2 inhibition (Change from baseline), skin ([2]; Schedule A (30 mg), n = 3, cycle 1, day 8): 40.8%
Skin pMCM2 Mean H-score (StDev), Cycle 1, day 8 ([2]; Schedule A (40 mg), n = 3, baseline mean H-score 19.53 (3.78)): 12.87 (12.19)
% of pMCM2 inhibition (Change from baseline), skin ([2]; Schedule A (40 mg), n = 3, cycle 1, day 8): 34.1%
Skin pMCM2 Mean H-score (StDev), Cycle 1, day 8 ([2]; Schedule A (50 mg), n = 14, baseline mean H-score 10.50 (5.85)): 3.76 (5.42)
% of pMCM2 inhibition (Change from baseline), skin ([2]; Schedule A (50 mg), n = 14, cycle 1, day 8): 64.2%
Skin pMCM2 Mean H-score (StDev), Cycle 1, day 8 ([2]; Schedule A (60 mg), n = 3, baseline mean H-score 10.93 (1.94)): 1.00 (0.60)
% of pMCM2 inhibition (Change from baseline), skin ([2]; Schedule A (60 mg), n = 3, cycle 1, day 8): 90.9%
Skin pMCM2 Mean H-score (StDev), Cycle 1, day 8 ([2]; Schedule B (60 mg), n = 3, baseline mean H-score 4.40 (2.96)): 0.67 (0.46)
Skin pMCM2 Mean H-score (StDev), Cycle 1, day 8 ([2]; Schedule B (80 mg), n = 9, baseline mean H-score 12.72 (2.02)): 3.54 (6.19)
% of pMCM2 inhibition (Change from baseline), skin ([2]; Schedule B (80 mg), n = 9, cycle 1, day 8): 72.2%
% of pMCM2 inhibition (Change from baseline), skin ([2]; Schedule D (20 mg), baseline n = 6, cycle 1, day 8 n = 4): 77.1%
Skin pMCM2 Mean H-score (StDev), Cycle 1, day 8 ([2]; Schedule D (20 mg), baseline n = 6, cycle 1, day 8 n = 4, baseline mean H-score 22.05 (24.52)): 5.05 (2.90)
Skin pMCM2 Mean H-score (StDev), Cycle 1, day 8 ([2]; Schedule D (30 mg), n = 6, baseline mean H-score 33.32 (23.43)): 6.43 (5.17)
% of pMCM2 inhibition (Change from baseline), skin ([2]; Schedule D (30 mg), n = 6, cycle 1, day 8): 80.7%
Recommended phase II dose ([3]; once daily days 1–14 in 21-day cycles): 50 mg
Patients with DLTs (grade 4 neutropenia) ([3]; schedule A): 2 patients
Patients with DLT of grade 4 neutropenia lasting >3 days ([3]; schedule A, 60 mg): 2 of 3
Maximum tolerated dose (MTD) ([3]; schedule A: once daily days 1–14 of 21-day cycle): 50 mg
Patients with DLT of grade 3 febrile neutropenia ([3]; schedule B): 3 n
Patients with DLT of grade 4 neutropenia ([3]; schedule B): 1 n
Patients with DLTs ([3]; schedule B): 4 patients
Patients with DLT of grade 3 febrile neutropenia ([3]; schedule B, 80 mg): 2 of 9
Patients with DLT of grade 4 neutropenia lasting >7 days ([3]; schedule B, 100 mg): One of 6
Patients with DLT of grade 3 febrile neutropenia ([3]; schedule B, 120 mg): one of six
Maximum tolerated dose (MTD) ([3]; schedule B: days 1–7 and 15–21 of 28-day cycle): 100 mg
Patients with DLT of grade 4 neutropenia ([3]; schedule D, 40 mg): 1 patient
Patients with DLT of grade 3 febrile neutropenia ([3]; schedule E, 150 mg): a second patient
Patients with DLT of grade 4 neutropenia ([3]; schedule E, 150 mg): 1 patient

From publication PMC10035389, “Safety, Tolerability, and Pharmacokinetics of TAK-931, a Cell Division Cycle 7 Inhibitor, in Patients with Advanced Solid Tumors: A Phase I First-in-Human Study” (Cancer Research Communications, 2022)
